Test: UV activation of P-type photochromic dye in PMMA matrix in natural sunlight (ΔE*ab vs. time)
Format: physicochemical
From the text: FIG. 5 is a set of six graphs (A-F) comparing measured and modeled data for the UV activation of P-type photochromic dyes with and without UV and color filters. The UV-activated color change is quantified by ΔE*ab in CIELAB chromaticity space for measured data, while it is expressed in terms of the relative concentration. [C], of the photoactivated species in the modeled data. (A) ΔE*ab vs. time for a P-type photochromic dye (1,2-Bis(2-methyl-5-phenyl-3-thienyl)-perfluorocyclopentenediarylethene, DAE-0001) embedded in a PMMA matrix in natural sunlight in Boulder, Colorado. The time to 85% complete activation, […], is 67 s. (B) ΔE*ab vs. time for DAE-0001 with 50% UV filter ([…] =142 s). […]
where [C] is the concentration of the photoactivated species (photostationary state), [S] is the concentration of the ground-state species, εS,λ is the molar absorptivity of the ground-state species at wavelength λ, εC,λ is the molar absorptivity of the photoactivated species at wavelength λ, φs is the quantum yield of the cycloreversion or deactivation, φC is the quantum yield of photoactivation, Iλ is the irradiance at wavelength λ, and l is the path length. […] The simulations agree well with measured data of its UV activation in natural sunlight in Boulder, Colorado, as shown in FIG. 5A and FIG. 5B. […]

Cc1sc(-c2ccccc2)cc1C1=C(c2cc(-c3ccccc3)sc2C)C(F)(F)C(F)(F)C1(F)F [DAE-0001, 1,2-Bis(2-methyl-5-phenyl-3-thienyl)-perfluorocyclopentenediarylethene]
time to 85% complete activation (embedded in a PMMA matrix, natural sunlight in Boulder, Colorado, no filter (FIG. 5A)): 67 s
time to 85% complete activation (natural sunlight, with 50% UV filter (FIG. 5B)): 142 s

Source: US20240173241A1, “Multistable Photochromic Pigments For Intradermal Use” (THE REGENTS OF THE UNIVERSITY OF COLORADO, a body corporate, priority 2021, published 2024)
